Data reported in patent US8580825B2, “Oxadiazole inhibitors of leukotriene production” (Boehringer Ingelheim International GmbH, priority 2010, dated 2013).

How the values were obtained:
[1] = target: T1, recombinant human FLAP protein (Homo sapiens, UniProt P20292); assay: FLAP binding assay (Scintillation Proximity Assay, displacement of [125I]L-691,831); settings: read-out: FLAP SPA IC50
T1 construct: made in house; host or cells: Sf9 insect cells (100,000xg membrane fraction used)
T1 sequence (P20292 1-161): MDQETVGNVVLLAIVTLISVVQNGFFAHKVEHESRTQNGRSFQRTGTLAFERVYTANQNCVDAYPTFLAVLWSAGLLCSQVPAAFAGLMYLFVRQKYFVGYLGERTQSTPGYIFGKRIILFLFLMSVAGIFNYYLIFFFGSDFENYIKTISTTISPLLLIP
Description: Compounds are assessed for the ability to bind to FLAP in a binding assay that measures compound-specific displacement of an iodinated (^125I) FLAP inhibitor via a Scintillation Proximity Assay format (adapted from S. Charleson et al., Mol. Pharmacol., 1992, 41, 873-879).
Cell pellets produced from sf9 insect cells expressing recombinant human FLAP protein are resuspended in buffer A [15 mM Tris-HCl (pH 7.5), 2 mM MgCl2, 0.3 mM EDTA, 1 mM PMSF]. The cells are lysed with a Dounce homogenizer and the material is centrifuged at 10,000×g for 10 minutes. The supernatant is then collected and centrifuged at 100,000×g for 60 minutes. To prepare membrane protein for an assay, an aliquot of the 100,000×g pellet is resuspended in 1 ml of buffer A, Dounce homogenized, and finally subjected to polytron mixing (30 seconds). Membrane protein (25 μl, 5 μg) is mixed with WGA SPA beads (Amersham) and stirred for 1 h. […] (final concentrations: beads, 200 μg/well; protein, 5 μg/well; [^125I] probe, 0.08 nM/well (17 nCi/well). The plates are shaken for 2 h before reading on a Microbeta plate reader. Non-specific binding is determined by the addition of 10 μM cold L-691,831 compound.

[2] = tested on: synthesis of LTB4 in human whole blood; assay: human whole blood LTB4 production inhibition assay; format: cell-based; settings: calcimycin stimulated, read-out: hWB LTB4 IC50
Description: Compounds are additionally tested in a human whole blood assay to determine their ability to inhibit the synthesis of LTB4 in a cellular system. Compounds are combined with heparinized human whole blood and incubated for 15 minutes at 37° C. Calcimycin (20 μM final, prepared in phosphate-buffered saline, pH 7.4) is then added and the mixture is incubated for another 30 minutes at 37° C. The samples are centrifuged for 5 min at low speed (1500×g) and the plasma layer is removed. Plasma LTB4 concentrations are then measured using an antibody-based homogenous time-resolved fluorescence method (CisBio, Bedford, Mass.).

| IC50 [1] | IC50 [2] | Structure (SMILES) |
| --- | --- | --- |
| 10.9 nM | 490 nM | CC(C)C(C)(c1ccc(-c2cnc(N)nc2)nc1)c1noc(-c2cnc(N3CCNCC3)cn2)n1 (stereo not drawn) [Example 13, 5-[5-(3-methyl-2-{5-[5-(piperazin-1-yl)pyrazin-2-yl]-1,2,4-oxadiazol-3-yl}butan-2-yl)pyridin-2-yl]pyrimidin-2-amine] |
| 6.5 nM | 45 nM | CC(C)C(C)(c1ccc(-c2cnc(N)nc2)nc1)c1noc(-c2cnn(CC(F)F)c2)n1 (stereo not drawn) [Example 14, 5-[5-(2-{5-[1-(2,2-difluoroethyl)-1H-pyrazol-4-yl]-1,2,4-oxadiazol-3-yl}-3-methylbutan-2-yl)pyridin-2-yl]pyrimidin-2-amine] |
| 2.3 nM | 75 nM | CNc1cnc(-c2nc(C(C)(c3ccc(-c4cnc(N)nc4)nc3)C(C)C)no2)cn1 (stereo not drawn) [Example 15, 5-[5-(3-methyl-2-{5-[5-(methylamino)pyrazin-2-yl]-1,2,4-oxadiazol-3-yl}butan-2-yl)pyridin-2-yl]pyrimidin-2-amine] |
| 2.3 nM | 65 nM | CC(C)Nc1cnc(-c2nc(C(C)(c3ccc(-c4cnc(N)nc4)nc3)C(C)C)no2)cn1 (stereo not drawn) [Example 16, 5-[5-(3-methyl-2-{5-[5-(propan-2-ylamino)pyrazin-2-yl]-1,2,4-oxadiazol-3-yl}butan-2-yl)pyridin-2-yl]pyrimidin-2-amine] |
| 4.5 nM | 53 nM | CC(C)C(C)(c1ccc(-c2cnc(N)nc2)nc1)c1noc(-c2cnn(CCF)c2)n1 (stereo not drawn) [Example 17, 5-[5-(2-{5-[1-(2-fluoroethyl)-1H-pyrazol-4-yl]-1,2,4-oxadiazol-3-yl}-3-methylbutan-2-yl)pyridin-2-yl]pyrimidin-2-amine] |
| 2.7 nM | 83 nM | COCCN(C)c1cnc(-c2nc(C(C)(c3ccc(-c4cnc(N)nc4)nc3)C(C)C)no2)cn1 (stereo not drawn) [Example 18, 5-{5-[2-(5-{5-[(2-methoxyethyl)(methyl)amino]pyrazin-2-yl}-1,2,4-oxadiazol-3-yl)-3-methylbutan-2-yl]pyridin-2-yl}pyrimidin-2-amine] |
| 4.8 nM | 140 nM | CC(C)C(C)(c1ccc(-c2cnc(N)nc2)nc1)c1noc(-c2cnc(NC[C@@H](C)O)cn2)n1 (stereo partly drawn) [Example 19, (2R)-1-{[5-(3-{2-[6-(2-aminopyrimidin-5-yl)pyridin-3-yl]-3-methylbutan-2-yl}-1,2,4-oxadiazol-5-yl)pyrazin-2-yl]amino}propan-2-ol] |
| 4 nM | 140 nM | CC(C)C(C)(c1ccc(-c2cnc(N)nc2)nc1)c1noc(-c2cnc(NC(C)(C)CO)cn2)n1 (stereo not drawn) [Example 20, 2-{[5-(3-{2-[6-(2-aminopyrimidin-5-yl)pyridin-3-yl]-3-methylbutan-2-yl}-1,2,4-oxadiazol-5-yl)pyrazin-2-yl]amino}-2-methylpropan-1-ol] |
| 51.2 nM | 570 nM | CC(C)C(C)(c1ccc(-c2cnc(N)nc2)nc1)c1noc(-c2cn(C)cn2)n1 (stereo not drawn) [Example 21, 5-(5-{3-methyl-2-[5-(1-methyl-1H-imidazol-4-yl)-1,2,4-oxadiazol-3-yl]butan-2-yl}pyridin-2-yl)pyrimidin-2-amine] |
| 3.6 nM | 140 nM | CC(C)C(C)(c1ccc(-c2cnc(N)nc2)nc1)c1noc(-c2cnc(NC[C@H](C)O)cn2)n1 (stereo partly drawn) [Example 22, (2S)-1-{[5-(3-{2-[6-(2-aminopyrimidin-5-yl)pyridin-3-yl]-3-methylbutan-2-yl}-1,2,4-oxadiazol-5-yl)pyrazin-2-yl]amino}propan-2-ol] |
| 3.9 nM | 39 nM | COCCn1cc(-c2nc([C@@](C)(c3ccc(-c4cnc(N)nc4)nc3)C(C)C)no2)cn1 [Example 23, 5-{5-[(2R)-2-{5-[1-(2-methoxyethyl)-1H-pyrazol-4-yl]-1,2,4-oxadiazol-3-yl}-3-methylbutan-2-yl]pyridin-2-yl}pyrimidin-2-amine] |
| 170 nM | 990 nM | COCCn1cc(-c2nc([C@](C)(c3ccc(-c4cnc(N)nc4)nc3)C(C)C)no2)cn1 [Example 24, 5-{5-[(2S)-2-{5-[1-(2-methoxyethyl)-1H-pyrazol-4-yl]-1,2,4-oxadiazol-3-yl}-3-methylbutan-2-yl]pyridin-2-yl}pyrimidin-2-amine] |
